Laboratory results taken from publication PMC12363935, “Unc-51 Like Kinase 3 (ULK3) is essential for autophagy and cell survival in multiple myeloma” (Research Square, 2025).

Tests used:
ULK3 KO U266 MM cells = assay: ULK3 KO U266 in vivo model; set-up: species or system mice; conditions: ULK3 KO U266, 10 mg/kg/day subcutaneously, M-F from day 20
Text: Supplementary Figure 7. ULK3 ablation suppresses MM cell growth. A. Immunoblotting for ULK3 expression in parental, NTC CTRL and ULK3 KO U266 cells. Of note, NTC CTRL and ULK3 KO were used for the in vivo ULK3 KO model. Densitometric quantification values are annotated on the blot. B. Mice (n = 20/group) were tail vein injected […]
with 1 x106 NTC CTRL and ULK3 KO U266 MM cells. […]
onset of the disease compared to NTC CTRL . (C) Representative confocal microscopy images of formalin fixed, paraffin embedded tumors (5-micron sections), stained for human mitochondria (hMITO) as a readout of MM cells colocalization. Alexa Fluor Plus 488 goat anti-mouse were used as secondary antibody. (D) MTS showing the inhibitory profile of MA9060 on NTC CTRL and ULK3 KO for U266 cell line. Treatment with MA9060 (0-100 uM) for 48h show reduced activity of MA9060 in ULK3 KO cell lines. E. Mice were divided respectively in two groups, vehicle control (n = 10, β-HCD Captisol) or MA9-060 (n = 10). Treatment started at day 20 (M-F, 10 mg/kg/day subcutaneously). MA9-060 treatment improves overall survival in the NTC CTRL arm (median 41 days post-tumor […]
38 For MA9 therapy efficacy, mice were treated with vehicle (n=10) or MA9 (10 mg/kg/day, 39 subcutaneously, M-F from day 20; n=10) (Supplementary Fig. 7E, F). Survival and toxicity 40 (weight, clinical signs) was monitored. […]

[1] = test system: CD138+ cells isolated from RRMM patient Pt1050; assay: Immunoblot densitometry, patient cells; type: cell-based, human; conditions: Pt1050, 1μM; for ULK3 densitometry: CTRL 0.03; for ULK1 densitometry: CTRL 0.28
Experimental: Figure 7. MA9–060 treatment compromises the survival of patient NDMM and RRMM cells ex vivo. A. Representative viability (live cell imaging) response of CD138^+ cells from NDMM patient (Pt620) cultured and tested in autologous stromal microenvironment in EMMA’s ex vivo platform, exposed to three different concentrations of MA9–060 (0.7, 2.2, 6.7 μM). […] (not shown here – 20 μM). B. Ex vivo EMMA platform assay to quantify the chemosensitivity of primary CD138^+ MM cells plated in a collagen matrix with bone marrow stroma and patient plasma. […] C. […] H. Immunoblot showing levels of indicated proteins in CD138^+ cells isolated from RRMM patients (Pt971, Pt1050). Pt1050 CD138^+ cells were assessed for ULK3-mediated autophagy related proteins (ATGs), following treatment with MA9–060 (1μM at 2 and 6 hours).
157 5872S). Protein concentration was quantified by Thermo Scientific™ Pierce™ BCA™ Protein
30 μg protein was loaded to 10%-15% gel and ran at
159 100V for 2 hours. Later protein was transferred to PVDF membrane and blocked with 5% skimmed
160 milk in TBST (10 mM Tris/HCl pH8.0, 0.12M NaCl, 0.1% Tween 20) containing 5% BSA [8] for
163 at 4°C overnight. Membranes were washed 3 times,10 minutes with TBS. Then incubated with
164 appropriate secondary antibodies at 1:1000 ratio in skimmed milk or 2% BSA. The membranes
165 were washed again 3 times for 10 minutes with TBST. ECL reagents were added to the membrane
166 and blot was developed by LICOR Imaging Studio.
167 All immunoblotting assays were performed at least in three replicates and representative
168 images are shown. Commercially available antibodies and their dilutions are listed in
169 Supplementary Table 5. Immunoblotting images were acquired and quantified using LICOR
170 Image Studio Quant software. […]

Work on `Cc1cnc(Nc2ccc(C3CCN(C)CC3)c(F)c2)nc1Nc1ccc(Cl)c(NS(=O)(=O)C(C)(C)C)c1` [MA9060] yielded a median overall survival (ULK3 KO U266 MM cells) of 87 days, a ULK3 densitometry ([1]; 2h) of 0.03 and a ULK1 densitometry ([1]; 2h) of 0.67. It also gave a ULK3 densitometry ([1]; 6h) of 0.03 and a ULK1 densitometry ([1]; 6h) of 0.35.
